Reference: US10604554B2, “Double-acylated GLP-1 derivatives” (Novo Nordisk A/S, priority 2012, dated 2020)

Tests used:
[1] = target: T1, human GLP-1 receptor (Homo sapiens, UniProt P43220); experiment: GLP-1 receptor binding (SPA, displacement of 125I-GLP-1)
T1 construct: expressed in transfected cells; host or cells: BHK cells, clone FCW467-12A/KZ10-1 (parent line BHKTS13), further transfected with CRE luciferase
Procedure, shortened: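 Tracer [125I]-GLP-1(7-36)NH2 at 0.06 nM final competed on hamster stably transfected cell membranes captured by WGA SPA beads; 120 min, 30 °C, scintillation count.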

[2] = target: T1, human GLP-1 receptor; experiment: In vitro potency (CRE luciferase; whole cells); assay type: cell-based; settings: In vitro potency (CRE luciferase) EC50 (0% HSA), BHK cells, 0% HSA
Procedure, shortened: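 Reporter: CRE-luciferase in BHK cells stably expressing human GLP-1R, 5×10^3 cells/well; compounds tested in buffer containing 0% or 1% HSA.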

T1 sequence (P43220 24-463): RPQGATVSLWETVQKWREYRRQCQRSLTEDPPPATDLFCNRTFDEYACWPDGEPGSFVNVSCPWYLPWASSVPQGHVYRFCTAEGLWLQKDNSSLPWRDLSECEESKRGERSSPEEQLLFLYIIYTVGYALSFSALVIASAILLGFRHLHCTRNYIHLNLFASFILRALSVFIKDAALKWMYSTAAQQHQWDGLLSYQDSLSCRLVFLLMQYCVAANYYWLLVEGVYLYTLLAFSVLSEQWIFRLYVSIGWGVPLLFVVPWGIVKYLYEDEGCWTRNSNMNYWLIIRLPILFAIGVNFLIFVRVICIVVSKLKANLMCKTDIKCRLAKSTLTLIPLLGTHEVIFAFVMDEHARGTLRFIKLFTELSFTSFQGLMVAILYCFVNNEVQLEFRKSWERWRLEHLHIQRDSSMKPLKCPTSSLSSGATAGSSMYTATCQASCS

CC[C@H](C)[C@H](NC(=O)[C@H](Cc1ccccc1)NC(=O)[C@H](CCC(=O)O)NC(=O)[C@H](CCCCNC(=O)[C@@H](N)CCCCNC(=O)CC[C@H](NC(=O)CC[C@H](NC(=O)CC[C@H](NC(=O)CCCCCCCCCCCOc1ccc(C(=O)O)cc1)C(=O)O)C(=O)O)C(=O)O)NC(=O)[C@H](C)NC(=O)[C@H](C)NC(=O)[C@H](CCC(N)=O)NC(=O)CNC(=O)[C@H](CCC(=O)O)NC(=O)[C@H](CC(C)C)NC(=O)[C@H](Cc1ccc(O)cc1)NC(=O)[C@H](CO)NC(=O)[C@H](CO)NC(=O)[C@@H](NC(=O)[C@H](CC(=O)O)NC(=O)[C@H](CO)NC(=O)[C@@H](NC(=O)[C@H](Cc1ccccc1)NC(=O)[C@@H](NC(=O)CNC(=O)[C@H](CCC(=O)O)NC(=O)C(C)(C)NC(=O)[C@@H](N)Cc1c[nH]cn1)[C@@H](C)O)[C@@H](C)O)C(C)C)C(=O)N[C@@H](C)C(=O)N[C@@H](Cc1c[nH]c2ccccc12)C(=O)N[C@@H](CC(C)C)C(=O)N[C@H](C(=O)N[C@@H](CCCNC(=N)N)C(=O)NCC(=O)N[C@@H](CCCNC(=N)N)C(=O)N[C@@H](CCCCNC(=O)[C@@H](N)CCCCNC(=O)CC[C@H](NC(=O)CC[C@H](NC(=O)CC[C@H](NC(=O)CCCCCCCCCCCOc1ccc(C(=O)O)cc1)C(=O)O)C(=O)O)C(=O)O)C(=O)O)C(C)C [Example 17, N^ε26-[(2S)-2-amino-6-[[(4S)-4-carboxy-4-[[(4S)-4-carboxy-4-[[(4S)-4-carboxy-4-[12-(4-carboxyphenoxy)dodecanoylamino]butanoyl]amino]butanoyl]amino]butanoyl]amino]hexanoyl], N^ε37-[(2S)-2-amino-6-[[(4S)-4-carboxy-4-[[(4S)-4-carboxy-4-[[(4S)-4-carboxy-4-[12-(4-carboxyphenoxy)dodecanoylamino]butanoyl]amino]butanoyl]amino]butanoyl]amino]hexanoyl]-[Aib^8,Arg^34,Lys^37]-GLP-1-(7-37)-peptide]
IC50 ([1]; Receptor binding affinity IC50 (high HSA), 2.0% HSA (high albumin)): 632 nM
IC50 ([1]; Receptor binding affinity IC50 (low HSA), 0.001% HSA (low albumin)): 0.42 nM
EC50 [2]: 3.3 pM
